From paper PMC9326216, “Treatment of Cardiovascular Dysfunction with PDE3-Inhibitors in Moderate and Severe Hypothermia—Effects on Cellular Elimination of Cyclic Adenosine Monophosphate and Cyclic Guanosine Monophosphate” (Frontiers in Physiology, 2022) come the findings set out here.

Molecules are shown by their SMILES.

One series deals with T1, PDE5 (Homo sapiens, UniProt O76074).
T1 construct: purchased Sigma-Aldrich, St. Louis, United States
In words: Phosphodiesterase assay: inhibition of cGMP hydrolysis by recombinant PDE5. It counts as biochemical. The settings on record: for IC50: 5 µM cGMP, 30 min; for Ki: Cheng-Prusoff. On the procedure:
The study drugs were tested upon their ability to hinder cAMP and cGMP hydrolysis by inhibiting PDE3 and PDE5 respectively. Either 5 µM cAMP or cGMP (Sigma-Aldrich, St. Louis, MO, United States) were used as substrates for the enzymes. The reaction was initiated by adding PDE to the assay solution in designated Eppendorf tubes, containing fresh incubation buffer (10 mM Tris, 8.2 mM Propionic acid, 3 mM Magnesium acetate, 1.5 mM EGTA and 0.5 mg/ml BSA, 0.2 mM DTT) selected substrate (cAMP or cGMP) and inhibitor. The reaction was initiated by adding 0.016 units/µl incubate of PDE3 (Abcam, Cambridge, United Kingdom), or 0.022 units/µl incubate of PDE5 (Sigma-Aldrich, St. Louis, United States). Control samples were free of drug and were either with or without PDE. The incubation time was 30 min in the selected temperature. Reaction was stopped by adding 99.9% methanol to the solutions. Internal standards of cGMP-13C5, cAMP-13C5, AMP-13C5 (Toronto Research Chemicals Inc., Ontario, Canada) and GMP-15N5 (Sigma-Aldrich, St. Louis, MO, United States) were added to each sample, before MS analysis.
Liquid chromatography tandem mass spectrometry (LC-MS) was used to assess concentrations of the inhibitors for experiments performed to determine intracellular access of these drugs, as well as to quantify levels of cAMP/AMP and cGMP/GMP for the PDE3-and PDE5-inhibition plots. Internal standards were used, as described previously.
IC50 and Ki values were calculated for each of the drugs, both for their ability to inhibit cAMP- and cGMP- efflux, as well as PDE3 and PDE5 activity. IC50 values were derived according to [Chou (1976)], and Ki values according to [Cheng and Prusoff (1973)]. Inhibition curves were created accordingly, both with and without adjustment for normothermic control.

The test system of a further series is erythrocytes. In words: Intracellular access of the drugs in erythrocytes (LC-MS). It counts as in vitro ADME, human. The settings on record: 30 min incubation, milrinone 10 µM, amrinone 100 µM, levosimendan 1 µM. Here is the method: Fresh (<24 h) EDTA blood from healthy donors (n = 18) was obtained and washed with Krebs-Ringer-Phosphate-Buffer containing glucose (KRPB/G, pH 7.4) and centrifuged (10 min, 1,000 g) three consecutive times. Plasma and buffy coat were removed. KRPB/G was added to the cell solution to bring it to the ratio 1:2.5. Hematocrit (Hct) was measured and adjusted with additional buffer to reach 0.44, in order to give the final Hct of 0.40 in the incubation solution. […] The reaction was stopped by placing the test tubes on ice and adding 4 ml of ice cold KRFB/G. The samples were subsequently centrifugated (5 min, 600 g), then washed with KRFB/G once more and centrifugation was repeated twice. 50 µl of the remaining red blood cell suspension was transferred to Eppendorf tubes. 50 µl 500 nM IS-Milrinone-d3 was added as an internal standard (TLC Pharmaceutical Standards Ltd.). 200 µl ZnSO4 was added to each test sample, to induce lysis of the cells, and mixed in a vortex mixer. 30 µl of the samples were used for measurement of protein concentration, the rest was mixed with 500 µl acetonitrile and centrifugated (2 min, 13400 g). Finally, 100 µl of the solution was collected for analysis using mass spectrometry (MS).
Liquid chromatography tandem mass spectrometry (LC-MS) was used to assess concentrations of the inhibitors for experiments performed to determine intracellular access of these drugs, as well as to quantify levels of cAMP/AMP and cGMP/GMP for the PDE3-and PDE5-inhibition plots. Internal standards were used, as described previously. There was a linearity from 0.2 nM to at least 2000 nM (r^2 > 0.998) for cAMP, AMP, and cGMP. For GMP, linearity was present from 2 nM to at least 2000 nM (r^2 > 0.998). Concerning PDE3-inhibitors, the linearity was found at 10 nM to at least 5,000 nM (r^2 > 0.99). Lower limit of quantification (LLOQ) was 0.2 for cAMP, cGMP, and AMP, 2 nM for GMP and 10 nM for PDE3-inhibitors (2 µl injection volume).
Intracellular concentrations of drugs were adjusted for protein concentrations in each sample. The total incubation concentrations were also adjusted for protein concentrations to evaluate the degree of access in percentage. Statistical analysis was performed using one-way ANOVA with Holm-Sidak multiple comparisons post hoc test at each temperature. ANOVA on ranks with Dunn post hoc test was used when the results were not normally distributed. The results are presented as means ± standard error of mean (SEM). p-values < 0.05 were considered significant results. Degrees of freedom (dF) is given as between group values. SigmaPlot 14.0 (Systat Software, San Jose, CA, United States) was used for all analysis, as well as creating the graphs.

One may read the IC50 as the point on the concentration scale where inhibition reaches its midpoint. By Ki is commonly meant a measure of affinity in units of concentration, obtained from inhibition or displacement.

`Nc1cc(-c2ccncc2)c[nH]c1=O` [Amrinone]: the IC50 at PDE5 (20°C) turned out to be 105 ± 8.04 µM; on PDE5 (24°C), 99.1 ± 4.2 µM; at PDE5 (28°C) it was 95 ± 7.29 µM; on PDE5 (32°C), 84.5 ± 5.94 µM; at PDE5 (34°C), 91.9 ± 3.65 µM; at PDE5 (37°C), 110 ± 12.8 µM. For the same molecule, the Ki at PDE5 (20°C) came to 26.7 ± 2.04 µM; at PDE5 (24°C), 25.1 ± 1.07 µM; at PDE5 (28°C), 24.1 ± 1.85 µM; at PDE5 (32°C) it was 21.5 ± 1.51 µM; on PDE5 (34°C), 23.3 ± 0.93 µM; at PDE5 (37°C), 27.8 ± 3.25 µM. Besides, the entries for the “Intracellular access, % of drug concentration per gram protein in the incubation solution” value with erythrocytes (28°C) and in the series with erythrocytes (34°C) were 1.66 ± 0.216% and 2.303 ± 0.284%, respectively.

`C[C@@H]1CC(=O)NN=C1c1ccc(NN=C(C#N)C#N)cc1` [Levosimendan]: the IC50 at PDE5 (20°C) was found to be 157 ± 27.5 µM; at PDE5 (24°C) it was 148 ± 26.1 µM; at PDE5 (28°C), 183 ± 23 µM; on PDE5 (32°C) it was 162 ± 22.5 µM; on PDE5 (34°C) it was 150 ± 13.5 µM; at PDE5 (37°C) it was 155 ± 4.74 µM. The inhibition constant (Ki) on PDE5 (20°C) was found to be 39.9 ± 6.97 µM; at PDE5 (24°C), 37.6 ± 6.63 µM; on PDE5 (28°C) it was 46.4 ± 5.85 µM; at PDE5 (32°C) it was 41.2 ± 5.71 µM; on PDE5 (34°C), 38 ± 3.41 µM; at PDE5 (37°C) it was 39.2 ± 1.2 µM. Also, the “Intracellular access, % of drug concentration per gram protein in the incubation solution” value in the series on erythrocytes (28°C) was 18.29 ± 3.122%; in the series with erythrocytes (34°C), 25.06 ± 5.289%.
